Read-outs that look alike come from different tables or passages of the source.
Tested on: epithelial cell line KB (DSMZ ACC 136)
Assay: MTT assay of proliferation under varied riboflavin content and light exposure
Assay type: cell-based, human
Source text: To address this question, three media, a) the RPMI 1640 without riboflavin and phenol red that is used in the method according to the invention and was manufactured according to our specifications by Biochrom, as well as two different RPMI 1640 charges purchased from Invitrogen which were each containing 532 nmol/L riboflavin, b) a phenol red-free (Gibco 11835), and c) a conventional RPMI 1640 (Gibco 21875) with 13.284 µmol/L phenol red. All media were supplemented with 2 mmol/L L-alanyl-1-glutamine as stabilized glutamine source (Biochrom K0302 Lot 0755 S) and the same amount of 10% (v/v) of heat-inactivated fetal calf serum (FCS) that was purchased from Invitrogen (Lot 41Q7554K) with a yield of 198 nmol/L riboflavin. […] These medium concentrations define the riboflavin concentrations in controls (see below).
In addition to the influences exerted by the different types of media alone, the riboflavin-dependent impact on the outcome of the docetaxel treatment was investigated. For this purpose 100 µl/well of docetaxel dilutions containing threefold the concentration indicated were added into the wells of microwell plates. The following seven docetaxel concentrations were tested: 19.38, 38.75, 77.5, 155, 310, 620, and 1,240 pmol/L.
To examine photoactivation-dependent riboflavin-mediated effects disturbing the outcome of ex-vivo chemoresponse-evaluation by conventional cell culture medium, and in particular in the absence of flavin-protecting experimental conditions, varying amounts of riboflavin were added. A stock solution of 200 µM (-)-riboflavin (CAS 83-68-5, Sigma R9504, FW=376.37 g/mol, purity >99%, cell culture tested) in phosphate buffered saline was diluted to adjust in each case the highest final concentration in culture (this means: after completion of the assay by addition of the other two components to the final assay volume of 300 µL) to exactly 10 µmol/L. Serial log10-dilutions were made from this concentration in each corresponding medium. These gave final concentrations in cell culture of 10.000, 1.018, 0.12, and 0.03 µmol/L in the case of medium a) (the medium according to the method of the invention), and concentrations of 10.000, 1.449, 0.594, and 0.508 µmol/L using media b) and c).
In general, each combination of riboflavin and docetaxel were tested in duplicate, and controls without additional riboflavin in quadruplicate for each experimental setting in the same 96-well plate. The experimental conditions were as follows: For each of the used media, two different plates were prepared simultaneously and either handled completely under flavin-protecting conditions (illumination only by sodium discharge lamps with an emission wavelength of 589 nm [i]), or in the same bench (Thermo MSC 12) with the installed light inside their working chamber switched on. The dilution of docetaxel and those of riboflavin in the particular medium were prepared for all four plates of each medium type prior to the other working steps under flavin-protecting conditions. Thus the administrations of these dilutions took about 20 min either under flavin-protecting conditions or illuminated conditions. After completed preparation of the plates that thereafter contained 200 µL of both diluted compounds, the plates were incubated 2 h in the incubator to allow for adjustment of the appropriate pH.
In between the stock culture of KB was harvested by trypsination of a 3-days stock culture (exponential growth phase). Stock cultures of KB cells always were grown without any antibiotic or antimycotic in phenol red- and riboflavin-free RPMI 1640 supplemented with 10% (v/v) FCS and were adapted to this medium for more than five passages. They were always handled at room temperature or warmer and were never exposed to light other than the light of a sodium discharge lamp with an emission wavelength of 589 nm for at least five passages. […]

IC50 (Homo sapiens, Epithelial cell, 0.5 h, Plate No. 02; Riboflavin 20 nmol/L; medium a) RPMI 1640 without riboflavin and phenol red, daylight 30 min, read-out: IC50 for docetaxel with reference to control with same riboflavin content): 0.238 nM | IC50 (Homo sapiens, Epithelial cell, 0.5 h, Plate No. 02; Riboflavin 30 nmol/L; medium a) RPMI 1640 without riboflavin and phenol red, daylight 30 min, read-out: IC50 for docetaxel with reference to control with same riboflavin content): 0.328 nM | IC50 (Homo sapiens, Epithelial cell, 0.5 h, Plate No. 02; Riboflavin 120 nmol/L; medium a) RPMI 1640 without riboflavin and phenol red, daylight 30 min, read-out: IC50 for docetaxel with reference to control with same riboflavin content): 0.34 nM | IC50 (Homo sapiens, Epithelial cell, 0.5 h, Plate No. 03; Riboflavin 20 nmol/L; medium a) RPMI 1640 without riboflavin and phenol red, bench lighting <30 min, read-out: IC50 for docetaxel with reference to control with same riboflavin content): 0.212 nM | IC50 (Homo sapiens, Epithelial cell, 0.5 h, Plate No. 03; Riboflavin 30 nmol/L; medium a) RPMI 1640 without riboflavin and phenol red, bench lighting <30 min, read-out: IC50 for docetaxel with reference to control with same riboflavin content): 0.185 nM | IC50 (Homo sapiens, Epithelial cell, 0.5 h, Plate No. 03; Riboflavin 120 nmol/L; medium a) RPMI 1640 without riboflavin and phenol red, bench lighting <30 min, read-out: IC50 for docetaxel with reference to control with same riboflavin content): 0.154 nM | IC50 (Homo sapiens, Epithelial cell, 0.5 h, Plate No. 03; Riboflavin 1018 nmol/L; medium a) RPMI 1640 without riboflavin and phenol red, bench lighting <30 min, read-out: IC50 for docetaxel with reference to control with same riboflavin content): 0.202 nM | IC50 (Homo sapiens, Epithelial cell, 0.5 h, Plate No. 04; Riboflavin 20 nmol/L; medium a) RPMI 1640 without riboflavin and phenol red, bench lighting <30 min, daylight 30 min, read-out: IC50 for docetaxel with reference to control with same riboflavin content): 0.175 nM | IC50 (Homo sapiens, Epithelial cell, 0.5 h, Plate No. 04; Riboflavin 30 nmol/L; medium a) RPMI 1640 without riboflavin and phenol red, bench lighting <30 min, daylight 30 min, read-out: IC50 for docetaxel with reference to control with same riboflavin content): 0.139 nM | IC50 (Homo sapiens, Epithelial cell, 0.5 h, Plate No. 04; Riboflavin 120 nmol/L; medium a) RPMI 1640 without riboflavin and phenol red, bench lighting <30 min, daylight 30 min, read-out: IC50 for docetaxel with reference to control with same riboflavin content): 0.149 nM | IC50 (Homo sapiens, Epithelial cell, 0.5 h, Plate No. 06; Riboflavin 499 nmol/L; medium b) phenol red-free RPMI 1640, daylight 30 min, read-out: IC50 for docetaxel with reference to control with same riboflavin content): 0.223 nM | IC50 (Homo sapiens, Epithelial cell, 0.5 h, Plate No. 06; Riboflavin 508 nmol/L; medium b) phenol red-free RPMI 1640, daylight 30 min, read-out: IC50 for docetaxel with reference to control with same riboflavin content): 0.485 nM | IC50 (Homo sapiens, Epithelial cell, 0.5 h, Plate No. 06; Riboflavin 594 nmol/L; medium b) phenol red-free RPMI 1640, daylight 30 min, read-out: IC50 for docetaxel with reference to control with same riboflavin content): 0.187 nM
Compound: CC(=O)O[C@@]12CO[C@@H]1C[C@H](O)[C@@]1(C)C(=O)[C@H](O)C3=C(C)[C@@H](OC(=O)[C@H](O)[C@@H](NC(=O)OC(C)(C)C)c4ccccc4)C[C@@](O)([C@@H](OC(=O)c4ccccc4)[C@H]21)C3(C)C [docetaxel]
IC50 (Homo sapiens, Epithelial cell, 0.5 h, Plate No. 02; Riboflavin 20 nmol/L; medium a), daylight 30 min, read-out: IC50 for docetaxel normalized to medium control of medium with same riboflavin content): 0.1 nM | IC50 (Homo sapiens, Epithelial cell, 0.5 h, Plate No. 02; Riboflavin 30 nmol/L; medium a), daylight 30 min, read-out: IC50 for docetaxel normalized to medium control of medium with same riboflavin content): 0.138 nM | IC50 (Homo sapiens, Epithelial cell, 0.5 h, Plate No. 02; Riboflavin 120 nmol/L; medium a), daylight 30 min, read-out: IC50 for docetaxel normalized to medium control of medium with same riboflavin content): 0.143 nM | IC50 (Homo sapiens, Epithelial cell, 0.5 h, Plate No. 03; Riboflavin 20 nmol/L; medium a), bench lighting <30 min, read-out: IC50 for docetaxel normalized to medium control of medium with same riboflavin content): 0.1 nM | IC50 (Homo sapiens, Epithelial cell, 0.5 h, Plate No. 03; Riboflavin 30 nmol/L; medium a), bench lighting <30 min, read-out: IC50 for docetaxel normalized to medium control of medium with same riboflavin content): 0.0873 nM | IC50 (Homo sapiens, Epithelial cell, 0.5 h, Plate No. 03; Riboflavin 120 nmol/L; medium a), bench lighting <30 min, read-out: IC50 for docetaxel normalized to medium control of medium with same riboflavin content): 0.0725 nM | IC50 (Homo sapiens, Epithelial cell, 0.5 h, Plate No. 03; Riboflavin 1018 nmol/L; medium a), bench lighting <30 min, read-out: IC50 for docetaxel normalized to medium control of medium with same riboflavin content): 0.095 nM | IC50 (Homo sapiens, Epithelial cell, 0.5 h, Plate No. 04; Riboflavin 20 nmol/L; medium a), bench lighting <30 min, daylight 30 min, read-out: IC50 for docetaxel normalized to medium control of medium with same riboflavin content): 0.1 nM | IC50 (Homo sapiens, Epithelial cell, 0.5 h, Plate No. 04; Riboflavin 30 nmol/L; medium a), bench lighting <30 min, daylight 30 min, read-out: IC50 for docetaxel normalized to medium control of medium with same riboflavin content): 0.0796 nM | IC50 (Homo sapiens, Epithelial cell, 0.5 h, Plate No. 04; Riboflavin 120 nmol/L; medium a), bench lighting <30 min, daylight 30 min, read-out: IC50 for docetaxel normalized to medium control of medium with same riboflavin content): 0.0855 nM | IC50 (Homo sapiens, Epithelial cell, 0.5 h, Plate No. 06; Riboflavin 499 nmol/L; medium b), daylight 30 min, read-out: IC50 for docetaxel normalized to medium control of medium with same riboflavin content): 0.1 nM | IC50 (Homo sapiens, Epithelial cell, 0.5 h, Plate No. 06; Riboflavin 508 nmol/L; medium b), daylight 30 min, read-out: IC50 for docetaxel normalized to medium control of medium with same riboflavin content): 0.218 nM

From patent EP2271935B1, “METHOD AND KIT FOR THE EX VIVO EVALUATION OF THE RESPONSE OF A TUMOR TO CONDITIONS TO BE TESTED” (Universität Leipzig, priority 2008, dated 2009)
